{"source": "ChEMBL document CHEMBL1687706", "about": "“Inhibition of human immunodeficiency virus type 1 replication in human cells by Debio-025, a novel cyclophilin binding agent” (Antimicrob Agents Chemother, 2008)", "key": {"Rattus norvegicus [1]": {"test_system": "Rattus norvegicus", "test": "Immunosuppressive activity in Sprague-Dawley rat […] model assessed as percent T lymphocytes at 25 mg/kg, po administered once daily for 28 days by flow cytometry", "type": "functional"}, "Rattus norvegicus [2]": {"test_system": "Rattus norvegicus", "test": "Immunosuppressive activity in Sprague-Dawley rat […] model assessed as IgM level at 50 mg/kg, po administered once daily for 28 days by ELISA", "type": "functional"}, "Rattus norvegicus [3]": {"test_system": "Rattus norvegicus", "test": "Immunosuppressive activity in Sprague-Dawley rat […] model assessed as IgM level at 10 mg/kg, po administered once daily for 28 days by ELISA", "type": "functional"}, "[4]": {"test_system": "Human immunodeficiency virus 1", "details": "Human immunodeficiency virus 1, 3B"}, "Rattus norvegicus [5]": {"test_system": "Rattus norvegicus", "test": "Immunosuppressive activity in Sprague-Dawley rat […] model assessed as percent T-helper cells at 25 mg/kg, po administered once daily for 28 days by flow cytometry", "type": "functional"}, "Rattus norvegicus [6]": {"test_system": "Rattus norvegicus", "test": "Immunosuppressive activity in Sprague-Dawley rat KHL model assessed as percent cytotoxic T cells at 10 mg/kg, po administered once daily for 28 days by flow cytometry", "type": "functional, T-cell"}, "Rattus norvegicus [7]": {"test_system": "Rattus norvegicus", "test": "Immunosuppressive activity in Sprague-Dawley rat KHL model assessed as percent cytotoxic T cells at 50 mg/kg, po administered once daily for 28 days by flow cytometry", "type": "functional, T-cell"}, "[8]": {"test_system": "Human immunodeficiency virus 1", "test": "Antiviral activity against HIV1 subtype A 92RW016 infected in human PBMC assessed as inhibition of viral replication by ELISA", "type": "functional, organism-based", "details": "Human immunodeficiency virus 1, subtype A 92RW016"}, "[9]": {"test_system": "Human immunodeficiency virus 1", "test": "Antiviral activity against HIV1 subtype B TEKI infected in human PBMC assessed as inhibition of viral replication by ELISA", "type": "functional, organism-based", "details": "Human immunodeficiency virus 1, subtype B TEKI"}, "[10]": {"test_system": "Human immunodeficiency virus 1", "test": "Antiviral activity against HIV1 subtype B ROJO infected in human PBMC assessed as inhibition of viral replication by ELISA", "type": "functional, organism-based", "details": "Human immunodeficiency virus 1, subtype B ROJO"}, "[11]": {"test_system": "Human immunodeficiency virus 1", "test": "Antiviral activity against HIV1 subtype B WEJO infected in human PBMC assessed as inhibition of viral replication by ELISA", "type": "functional, organism-based", "details": "Human immunodeficiency virus 1, subtype B WEJO"}, "[12]": {"test_system": "Human immunodeficiency virus 1", "test": "Antiviral activity against HIV1 subtype C 92BR025 infected in human PBMC assessed as inhibition of viral replication by ELISA", "type": "functional, organism-based", "details": "Human immunodeficiency virus 1, subtype C 92BR025"}, "[13]": {"test_system": "Human immunodeficiency virus 1", "test": "Antiviral activity against HIV1 subtype EA CMU02 infected in human PBMC assessed as inhibition of viral replication by ELISA", "type": "functional, organism-based", "details": "Human immunodeficiency virus 1, subtype EA CMU02"}, "[14]": {"test_system": "Human immunodeficiency virus 1", "test": "Antiviral activity against HIV1 subtype F 93BR020 infected in human PBMC assessed as inhibition of viral replication by ELISA", "type": "functional, organism-based", "details": "Human immunodeficiency virus 1, subtype F 93BR020"}, "[15]": {"test_system": "Human immunodeficiency virus 1", "test": "Antiviral activity against APV, ATV, LPV, IDV, NFV, RTV, SQV-resistant HIV-1 1064-52 infected in human PBMC assessed as inhibition of viral replication by ELISA", "type": "functional, organism-based", "details": "Human immunodeficiency virus 1, 1064-52"}, "[16]": {"test_system": "Human immunodeficiency virus 1", "test": "Antiviral activity against LPV, APV, ATV, IDV, NFV, RTV, SQV, AZT, ddI, 3TC, d4T-resistant HIV-1 MDR3761 infected in human PBMC assessed as inhibition of viral replication by ELISA", "type": "functional, organism-based", "details": "Human immunodeficiency virus 1, MDR3761"}, "[17]": {"test_system": "Human immunodeficiency virus 1", "test": "Antiviral activity against ABC, ddC, ddI, TDF, AZT, d4T-resistant HIV-1 G910-6 infected in human PBMC assessed as inhibition of viral replication by ELISA", "type": "functional, organism-based", "details": "Human immunodeficiency virus 1, G910-6"}, "[18]": {"test_system": "Human immunodeficiency virus 1", "test": "Antiviral activity against LPV, APV, ATV, IDV, NFV, RTV, SQV-resistant HIV-1 52-52 infected in human PBMC assessed as inhibition of viral replication by ELISA", "type": "functional, organism-based", "details": "Human immunodeficiency virus 1, 52-52"}, "[19]": {"test": "Antiviral activity against Simian immunodeficiency virus-mac 251 infected in human PBMC assessed as inhibition of viral replication by RT activity", "type": "functional"}, "[20]": {"test_system": "Simian immunodeficiency virus", "test": "Antiviral activity against Simian immunodeficiency virus PBj infected in human PBMC assessed as inhibition of viral replication by RT activity", "type": "functional, organism-based"}, "[21]": {"test_system": "Human immunodeficiency virus 2", "test": "Antiviral activity against HIV-2 isolate CDC310342 infected in human PBMC assessed as inhibition of viral replication", "type": "functional, organism-based", "details": "Human immunodeficiency virus 2, isolate CDC310342"}, "Coxsackievirus": {"test_system": "Coxsackievirus", "test": "Antiviral activity against Coxsackie B3 infected in african green monkey Vero cells assessed as inhibition of viral replication", "type": "functional, organism-based"}, "Influenza A virus [22]": {"test_system": "Influenza A virus", "test": "Antiviral activity against Influenza A virus H1N1 infected in MDCK cells assessed as inhibition of viral replication", "type": "functional, organism-based"}, "Influenza A virus [23]": {"test_system": "Influenza A virus", "test": "Antiviral activity against Influenza A virus H3N2 infected in MDCK cells assessed as inhibition of viral replication", "type": "functional, organism-based"}, "Human respirovirus 3": {"test_system": "Human respirovirus 3", "test": "Antiviral activity against Parainfluenza 3 infected in african green monkey Vero cells assessed as inhibition of viral replication", "type": "functional, organism-based", "details": "Human respirovirus 3, Vero"}, "Feline coronavirus": {"test_system": "Feline coronavirus", "test": "Antiviral activity against Feline coronavirus infected in CRFK assessed as inhibition of viral replication", "type": "functional, organism-based", "details": "Alphacoronavirus 1, CRFK"}, "Yellow fever virus": {"test_system": "Yellow fever virus", "test": "Antiviral activity against Yellow fever virus 17D infected in african green monkey Vero cells assessed as inhibition of viral replication", "type": "functional, cell-based"}, "[24]": {"test": "Cytotoxicity against human Huh 5.2 cells", "type": "cell-based, Huh-5-2", "details": "read-out: TC50 (the source's name)"}, "Human alphaherpesvirus 1": {"test_system": "Human alphaherpesvirus 1", "test": "Antiviral activity against Herpes simplex virus 1 KOS infected in human embryonic lung cells assessed as inhibition of viral replication", "type": "functional, organism-based", "details": "Human alphaherpesvirus 1, KOS"}, "Human alphaherpesvirus 2 [25]": {"test_system": "Human alphaherpesvirus 2", "test": "Antiviral activity against Herpes simplex virus 2 G infected in human embryonic lung cells assessed as inhibition of viral replication", "type": "functional, organism-based", "details": "Human alphaherpesvirus 2, strain G"}, "Human alphaherpesvirus 2 [26]": {"test_system": "Human alphaherpesvirus 2", "test": "Antiviral activity against Herpes simplex virus 2 Lyons infected in human embryonic lung cells assessed as inhibition of viral replication", "type": "functional, organism-based", "details": "Human alphaherpesvirus 2, Lyons"}, "Human betaherpesvirus 5": {"test_system": "Human betaherpesvirus 5", "test": "Antiviral activity against Human cytomegalovirus AD169 infected in human embryonic lung cells assessed as reduction in viral yield", "type": "functional, organism-based", "details": "Human betaherpesvirus 5, AD169, lung"}, "Hepatitis B virus": {"test_system": "Hepatitis B virus", "test": "Antiviral activity against HBV infected in human hepAD38 cells assessed as inhibition of viral replication", "type": "functional, organism-based"}, "[27]": {"test_system": "Human papillomavirus type 16", "test": "Antiviral activity against HPV-16 infected in Caski cells assessed as inhibition of viral replication after 3 days", "type": "functional, organism-based, Human papillomavirus 16"}, "[28]": {"test": "Antiviral activity against HPV-33 infected in CK1 cells assessed as inhibition of viral replication after 7 days", "type": "functional, Human papillomavirus type 33", "details": "human papillomavirus 33, CK1, 168 h; read-out: TC50 (the source's name)"}, "[29]": {"test_system": "Human immunodeficiency virus 1", "test": "Antiviral activity against HIV-1 NL4-3 infected in human TZB cells assessed as inhibition of accumulation of early viral transcripts at 0.5 to 2.5 uM by RT-PCR", "type": "functional, organism-based"}, "[30]": {"test_system": "Human immunodeficiency virus 1", "test": "Antiviral activity against HIV-1 NL4-3 infected in human TZB cells assessed as inhibition of accumulation of late viral transcripts at 0.5 to 2.5 uM by RT-PCR", "type": "functional, organism-based"}, "[31]": {"test_system": "Human immunodeficiency virus 1", "test": "Antiviral activity against HIV-1 NL4-3 infected in human TZB cells assessed as inhibition of viral entry at 0.5 to 2.5 uM after 2 hrs by RT-PCR", "type": "functional, organism-based"}, "[32]": {"test_system": "Human respiratory syncytial virus", "test": "Antiviral activity against RSV infected in human HeLa cells assessed as inhibition of viral replication"}}, "note": "Activity calls are given as the source filed them. The calls are words filed in the database; no cut-off is given here."}
{"smiles": "C/C=C/C[C@@H](C)[C@@H](O)[C@H]1C(=O)N[C@@H](CC)C(=O)N(C)[C@H](C)C(=O)N(CC)[C@@H](C(C)C)C(=O)N[C@@H](C(C)C)C(=O)N(C)[C@@H](CC(C)C)C(=O)N[C@@H](C)C(=O)N[C@H](C)C(=O)N(C)[C@@H](CC(C)C)C(=O)N(C)[C@@H](CC(C)C)C(=O)N(C)[C@@H](C(C)C)C(=O)N1C", "note": "[ALISPORIVIR]", "values": [{"measurement": "Activity", "setting": "Rattus norvegicus [1]", "result": 53.4, "unit": "%"}, {"measurement": "deltaA", "setting": "Rattus norvegicus [2]", "result": 0.67}, {"measurement": "deltaA", "setting": "Rattus norvegicus [3]", "result": 0.78}, {"measurement": "IC50", "setting": "[4]", "result": 0.064, "unit": "µM"}, {"measurement": "Activity", "setting": "Rattus norvegicus [5]", "result": 34.5, "unit": "%"}, {"measurement": "Activity", "setting": "Rattus norvegicus [6]", "result": 17.6, "unit": "%"}, {"measurement": "Activity", "setting": "Rattus norvegicus [7]", "result": 16.1, "unit": "%"}, {"measurement": "IC50", "setting": "[8]", "result": 0.008, "unit": "µM"}, {"measurement": "IC50", "setting": "[9]", "result": 4.41, "unit": "µM"}, {"measurement": "IC50", "setting": "[10]", "result": 0.024, "unit": "µM"}, {"measurement": "IC50", "setting": "[11]", "result": 0.015, "unit": "µM"}, {"measurement": "IC50", "setting": "[12]", "result": 0.015, "unit": "µM"}, {"measurement": "IC50", "setting": "[13]", "result": 5.66, "unit": "µM"}, {"measurement": "IC50", "setting": "[14]", "result": 6.25, "unit": "µM"}, {"measurement": "IC50", "setting": "[15]", "result": 0.007, "unit": "µM"}, {"measurement": "IC50", "setting": "[16]", "result": 0.16, "unit": "µM"}, {"measurement": "IC50", "setting": "[17]", "result": 0.029, "unit": "µM"}, {"measurement": "IC50", "setting": "[18]", "result": 3.12, "unit": "µM"}, {"measurement": "IC50", "setting": "[19]", "result": 8.24, "unit": "µM"}, {"measurement": "IC50", "setting": "[20]", "result": 7.97, "unit": "µM"}, {"measurement": "IC50", "setting": "[21]", "result": 0.058, "unit": "µM"}, {"measurement": "IC50", "setting": "Coxsackievirus", "result": "> 25", "unit": "µM"}, {"measurement": "IC50", "setting": "Influenza A virus [22]", "result": "> 9.9", "unit": "µM"}, {"measurement": "IC50", "setting": "Influenza A virus [23]", "result": "> 9.9", "unit": "µM"}, {"measurement": "IC50", "setting": "Human respirovirus 3", "result": "> 25", "unit": "µM"}, {"measurement": "IC50", "setting": "Feline coronavirus", "result": 2.2, "unit": "µM"}, {"measurement": "IC50", "setting": "Yellow fever virus", "result": "> 16.6", "unit": "µM"}, {"measurement": "CC50", "setting": "[24]", "result": 22, "unit": "µM"}, {"measurement": "IC50", "setting": "Human alphaherpesvirus 1", "result": "> 25", "unit": "µM"}, {"measurement": "IC50", "setting": "Human alphaherpesvirus 2 [25]", "result": "> 25", "unit": "µM"}, {"measurement": "IC50", "setting": "Human alphaherpesvirus 2 [26]", "result": "> 25", "unit": "µM"}, {"measurement": "IC50", "setting": "Human betaherpesvirus 5", "result": 8.9, "unit": "µM"}, {"measurement": "IC50", "setting": "Hepatitis B virus", "result": 4.1, "unit": "µM"}, {"measurement": "TC50", "setting": "[27]", "result": 1.2, "unit": "µM"}, {"measurement": "CC50", "setting": "[28]", "result": 0.6, "unit": "µM"}, {"measurement": "inhibition", "setting": "[29]", "result": "inactive"}, {"measurement": "inhibition", "setting": "[30]", "result": "Active"}, {"measurement": "inhibition", "setting": "[31]", "result": "inactive"}, {"measurement": "IC50", "setting": "[32]", "result": "> 8.2", "unit": "µM"}]}
